Reference: the supplement of paper PMC10307832

Experiments:
Experiment in all cases: relative viability (nuclei count vs DMSO), 5 days (fraction); higher = more cells survive
[1] = compound: COc1cc2ncn(-c3cc(OCc4ccccc4C(F)(F)F)c(C(N)=O)s3)c2cc1OC + C[C@@H](Oc1cc(-c2cnn(C3CCNCC3)c2)cnc1N)c1c(Cl)ccc(F)c1Cl [Crizotinib] (partner 1 µM)
Outline: (§1)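 Each reported value is a median over duplicate plates. It expresses relative viability: treated-well nuclei count divided by vehicle-well nuclei count. Lung cancer cell lines in 1536-well plates were dosed by pin tool a day after seeding, alone with one drug or with a fixed anchor-drug dose plus five library-drug doses (not always all listed) in √10 steps, and nuclei were counted after 5 days.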

[2] = compound: COc1cc2ncn(-c3cc(OCc4ccccc4C(F)(F)F)c(C(N)=O)s3)c2cc1OC + CC(=O)Nc1cccc(-n2c(=O)n(C3CC3)c(=O)c3c(Nc4ccc(I)cc4F)n(C)c(=O)c(C)c32)c1 [Trametinib] (partner 0.02 µM)
Outline: as §1

[3] = compound: COc1cc2ncn(-c3cc(OCc4ccccc4C(F)(F)F)c(C(N)=O)s3)c2cc1OC + N=C(N)NC(=N)NCCc1ccccc1 [Phenformin] (partner 250 µM)
Outline: as §1

[4] = compound: COc1cc2ncn(-c3cc(OCc4ccccc4C(F)(F)F)c(C(N)=O)s3)c2cc1OC + COc1cccc2cc(-c3nc([C@H]4CC[C@H](C(=O)O)CC4)n4ncnc(N)c34)[nH]c12 [OSI-027] (partner 0.5 µM)
Outline: as §1

Cell Line	relative viability ([1]; first compound 0.05 µM)	relative viability ([1]; first compound 0.1581 µM)	relative viability ([1]; first compound 0.5 µM)	relative viability ([1]; first compound 1.581 µM)	relative viability ([1]; first compound 5 µM)	relative viability ([2]; first compound 0.05 µM)	relative viability ([2]; first compound 0.1581 µM)	relative viability ([2]; first compound 0.5 µM)	relative viability ([2]; first compound 1.581 µM)	relative viability ([2]; first compound 5 µM)	relative viability ([3]; first compound 0.05 µM)	relative viability ([3]; first compound 0.1581 µM)	relative viability ([3]; first compound 0.5 µM)	relative viability ([3]; first compound 1.581 µM)	relative viability ([3]; first compound 5 µM)	relative viability ([4]; first compound 0.05 µM)	relative viability ([4]; first compound 0.1581 µM)	relative viability ([4]; first compound 0.5 µM)	relative viability ([4]; first compound 1.581 µM)	relative viability ([4]; first compound 5 µM)
HCC-366	0.788	0.545	0.117	0.013	0.0129	0.114	0.35	0.12	0.0256	0.0157	0.612	0.534	0.301	0.0215	0.0222	1.1	0.814	0.182	0.0338	0.0229
HCC-827	0.925	0.871	0.698	0.341	0.287	0.479	0.421	0.473	0.428	0.453	0.468	0.426	0.33	0.22	0.181	0.794	0.9	0.564	0.228	0.14
HOP-62	0.765	0.935	0.824	0.206	0.101	0.35	0.284	0.348	0.163	0.136	0.67	0.664	0.53	0.15	0.108	0.846	0.888	0.537	0.226	0.144
IA-LM	0.717	0.395	0.198	0.0759	0.0777	–	–	–	–	–	–	–	–	–	–	–	–	–	–	–
LC-2-ad	0.485	0.422	0.295	0.212	0.287	1.02	0.821	0.662	0.211	0.188	0.527	0.578	0.313	0.274	0.316	0.813	0.754	0.393	0.289	0.254
LCLC-97TM1	0.419	0.331	0.165	0.152	0.145	0.178	0.149	0.148	0.0713	0.0862	0.398	0.492	0.353	0.154	0.148	0.529	0.538	0.301	0.195	0.175
LCLC-103H	0.999	1.11	0.851	0.523	0.267	0.675	0.643	0.565	0.452	0.268	0.386	0.397	0.279	0.178	0.127	0.495	0.538	0.405	0.249	0.12
LK-2	0.247	0.247	0.245	0.209	0.204	0.719	0.457	0.283	0.151	0.145	0.423	0.445	0.23	0.187	0.106	0.197	0.221	0.17	0.173	0.138
LOU-NH91	0.772	0.779	0.626	0.483	0.459	0.783	0.776	0.719	0.52	0.295	0.734	0.855	0.526	0.297	0.432	0.677	0.772	0.656	0.525	0.682
LU99A	0.59	0.526	0.579	0.244	0.197	0.589	0.236	0.343	0.171	0.128	1.01	0.865	0.723	0.241	0.174	0.304	0.32	0.231	0.176	0.178
LXF-289	0.8	0.615	0.453	0.147	0.0723	0.685	0.551	0.491	0.142	0.0968	0.437	0.466	0.256	0.0678	0.0402	0.815	0.755	0.214	0.0606	0.0476
NCI-H23	0.754	0.362	0.258	0.127	0.121	0.29	0.271	0.198	0.123	0.0957	0.798	0.821	0.433	0.129	0.125	0.638	0.561	0.316	0.117	0.0957
NCI-H522	–	–	–	–	–	0.654	0.748	0.657	0.673	0.335	0.741	0.581	0.612	0.484	0.404	0.692	0.757	0.621	0.444	0.415
NCI-H1395	–	–	–	–	–	1.11	0.977	0.828	0.39	0.287	0.459	0.438	0.386	0.335	0.295	0.63	0.675	0.547	0.354	0.323
NCI-H1563	0.832	0.968	0.872	0.661	0.582	–	–	–	–	–	0.709	0.628	0.65	0.528	0.452	0.853	0.687	0.798	0.57	0.488
NCI-H1648	–	–	–	–	–	0.488	0.419	0.295	0.293	0.251	–	–	–	–	–	0.255	0.219	0.244	0.238	0.198
NCI-H1703	0.962	0.813	0.144	0.117	0.206	–	–	–	–	–	–	–	–	–	–	–	–	–	–	–
NCI-H1793	–	–	–	–	–	0.253	0.371	0.373	0.298	0.185	0.367	0.413	0.182	0.17	0.136	0.3	0.299	0.161	0.144	0.116
NCI-H2342	–	–	–	–	–	0.794	0.757	0.696	0.607	0.598	0.631	0.652	0.457	0.379	0.299	0.614	0.579	0.56	0.416	0.375
SW 900	–	–	–	–	–	0.639	0.778	0.649	0.433	0.124	0.538	0.503	0.53	0.33	0.14	0.59	0.618	0.364	0.173	0.093
